Data taken from patent publication US10543212B2, “Substituted amines for treating cardiac diseases” (Cardurion Pharmaceuticals, LLC, priority 2017, dated 2020).

target: T1, Full-length, GST-tagged, human CaMKIIδ (Homo sapiens, UniProt Q13557); assay: CaMKIIδ binding assay (TR-FRET with BODIPY-labeled probe ligand); details: Table 2; CaMKIIδ binding assay, activity given as class A/B/C
T1 construct: Full-Length, Glutathione-S-Transferase(GST)-Tagged, Human CaMKIIδ was purchased from Carna Biosciences; purchased Carna Biosciences 02-111
T1 sequence (Q13557 1-478 isoform Q13557-12): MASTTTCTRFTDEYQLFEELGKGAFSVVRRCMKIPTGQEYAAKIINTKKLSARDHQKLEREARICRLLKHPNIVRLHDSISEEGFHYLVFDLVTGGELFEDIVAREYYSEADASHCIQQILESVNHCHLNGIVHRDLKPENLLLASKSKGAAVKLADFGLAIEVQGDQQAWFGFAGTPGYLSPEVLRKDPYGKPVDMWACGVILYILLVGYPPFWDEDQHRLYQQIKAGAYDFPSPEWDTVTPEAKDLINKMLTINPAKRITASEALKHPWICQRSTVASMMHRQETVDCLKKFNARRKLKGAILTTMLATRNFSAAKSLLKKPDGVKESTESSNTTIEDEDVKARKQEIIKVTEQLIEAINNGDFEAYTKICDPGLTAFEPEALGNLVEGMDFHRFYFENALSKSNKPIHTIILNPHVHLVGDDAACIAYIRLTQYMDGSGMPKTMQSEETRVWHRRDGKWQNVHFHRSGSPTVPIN
Procedure, shortened: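 Compounds were tested as 4-fold, eight-point series for 1 hr at room temperature, and IC50 was obtained by logistic fitting against a 3 μM parent-compound control. Signal came from displacement of a 300 nM BODIPY ligand from 0.5 nM GST-CaMKIIδ, detected via Tb-anti-GST in calmodulin/Ca2+ (pH 7.6).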

Structure (SMILES) | IC50 [nM]
C[C@@H](Cn1cnnn1)Oc1cc(-c2cnc(Nc3cc(N4CC(CN5CCOCC5)C4)ccc3F)nc2)ccc1C#N [Example 762, (S)-2-((1-(1H-tetrazol-1-yl)propan-2-yl)oxy)-4-(2-((2-fluoro-5-(3-(morpholinomethyl)azetidin-1-yl)phenyl)amino)pyrimidin-5-yl)benzonitrile] | < 10
C[C@@H](Cn1cnnn1)Oc1cc(-c2cnc(Nc3cn(C4CCCCO4)nc3OCC(F)(F)F)nc2)ccc1C#N (stereo partly drawn) [Example 763, 2-(((S)-1-(1H-tetrazol-1-yl)propan-2-yl)oxy)-4-(2-((1-(tetrahydro-2H-pyran-2-yl)-3-(2,2,2-trifluoroethoxy)-1H-pyrazol-4-yl)amino)pyrimidin-5-yl)benzonitrile] | < 10
CCn1cc(Nc2ncc(-c3ccc(C#N)c(O[C@@H](C)Cn4cnnn4)c3)cn2)c(OCC(F)(F)F)n1 [Example 764, (S)-2-((1-(1H-tetrazol-1-yl)propan-2-yl)oxy)-4-(2-((1-ethyl-3-(2,2,2-trifluoroethoxy)-1H-pyrazol-4-yl)amino)pyrimidin-5-yl)benzonitrile] | < 10
C[C@@H](Cn1cnnn1)Oc1cc(-c2cnc(Nc3cn(C)nc3OCC(F)(F)F)nc2)ccc1C#N [Example 765, (S)-2-((1-(1H-tetrazol-1-yl)propan-2-yl)oxy)-4-(2-((1-methyl-3-(2,2,2-trifluoroethoxy)-1H-pyrazol-4-yl)amino)pyrimidin-5-yl)benzonitrile] | < 10
C[C@@H](Cn1cnnn1)Oc1cc(-c2cnc(Nc3cn(C4CCN(C(=O)OC(C)(C)C)CC4)nc3C(F)F)nc2)ccc1Cl [Example 766, tert-butyl (S)-4-(4-((5-(3-((1-(1H-tetrazol-1-yl)propan-2-yl)oxy)-4-chlorophenyl)pyrimidin-2-yl)amino)-3-(difluoromethyl)-1H-pyrazol-1-yl)piperidine-1-carboxylate] | 10 to 100
C[C@@H](Cn1cnnn1)Oc1cc(-c2cnc(Nc3cn(CC(F)F)nc3OCC(F)(F)F)nc2)ccc1C#N [Example 767, (S)-2-((1-(1H-tetrazol-1-yl)propan-2-yl)oxy)-4-(2-((1-(2,2-difluoroethyl)-3-(2,2,2-trifluoroethoxy)-1H-pyrazol-4-yl)amino)pyrimidin-5-yl)benzonitrile] | < 10
C[C@@H](Cn1cnnn1)Oc1cc(-c2cnc(Nc3cc(N4CCN(C5CCOCC5)CC4)ccc3OC(F)(F)F)nc2)ccc1Cl [Example 768, (S)-5-(3-((1-(1H-tetrazol-1-yl)propan-2-yl)oxy)-4-chlorophenyl)-N-(5-(4-(tetrahydro-2H-pyran-4-yl)piperazin-1-yl)-2-(trifluoromethoxy)phenyl)pyrimidin-2-amine] | < 10
C[C@@H](Cn1cnnn1)Oc1cc(-c2cnc(Nc3cn(C4CCN(C5CCOCC5)CC4)nc3C(F)F)nc2)ccc1Cl [Example 769, (S)-5-(3-((1-(1H-tetrazol-1-yl)propan-2-yl)oxy)-4-chlorophenyl)-N-(3-(difluoromethyl)-1-(1-(tetrahydro-2H-pyran-4-yl)piperidin-4-yl)-1H-pyrazol-4-yl)pyrimidin-2-amine] | < 10
COc1ncc(N2CCN(C3CCOCC3)CC2)cc1Nc1ncc(-c2ccc(Cl)c(O[C@@H](C)Cn3cnnn3)c2)cn1 [Example 770, (S)-5-(3-((1-(1H-tetrazol-1-yl)propan-2-yl)oxy)-4-chlorophenyl)-N-(2-methoxy-5-(4-(tetrahydro-2H-pyran-4-yl)piperazin-1-yl)pyridin-3-yl)pyrimidin-2-amine] | < 10
C[C@@H](Cn1cnnn1)Oc1cc(-c2cnc(Nc3cn(C4CCNCC4)nc3C(F)F)nc2)ccc1Cl [Example 771, (S)-5-(3-((1-(1H-tetrazol-1-yl)propan-2-yl)oxy)-4-chlorophenyl)-N-(3-(difluoromethyl)-1-(piperidin-4-yl)-1H-pyrazol-4-yl)pyrimidin-2-amine] | < 10
C[C@@H](Cn1cnnn1)Oc1cc(-c2cnc(Nc3cn([C@H]4CC[C@@H](N5CCC5)CC4)nc3C(F)(F)F)nc2)ccc1C#N [Example 773, 2-(((S)-1-(1H-tetrazol-1-yl)propan-2-yl)oxy)-4-(2-((1-(cis-4-(azetidin-1-yl)cyclohexyl)-3-(trifluoromethyl)-1H-pyrazol-4-yl)amino)pyrimidin-5-yl)benzonitrile] | < 10
C[C@@H](Cn1cnnn1)Oc1cc(-c2cnc(Nc3cn(C4CC4)nc3OCC(F)(F)F)nc2)ccc1Cl [Example 774, (S)-5-(3-((1-(1H-tetrazol-1-yl)propan-2-yl)oxy)-4-chlorophenyl)-N-(1-cyclopropyl-3-(2,2,2-trifluoroethoxy)-1H-pyrazol-4-yl)pyrimidin-2-amine] | < 10
C[C@@H](Cn1cnnn1)Oc1cc(-c2cnc(Nc3cn([C@@H](C)CO)nc3OCC(F)(F)F)nc2)ccc1Cl [Example 775, (S)-2-(4-((5-(3-(((S)-1-(1H-tetrazol-1-yl)propan-2-yl)oxy)-4-chlorophenyl)pyrimidin-2-yl)amino)-3-(2,2,2-trifluoroethoxy)-1H-pyrazol-1-yl)propan-1-ol] | < 10
COCC(C)n1cc(Nc2ncc(-c3ccc(Cl)c(O[C@@H](C)Cn4cnnn4)c3)cn2)c(OCC(F)(F)F)n1 (stereo partly drawn) [Example 776, 5-(3-(((S)-1-(1H-tetrazol-1-yl)propan-2-yl)oxy)-4-chlorophenyl)-N-(1-(1-methoxypropan-2-yl)-3-(2,2,2-trifluoroethoxy)-1H-pyrazol-4-yl)pyrimidin-2-amine] | < 10
C[C@@H](Cn1cnnn1)Oc1cc(-c2cnc(Nc3cn(C4CCCCNC4=O)nc3OCC(F)(F)F)nc2)ccc1Cl (stereo partly drawn) [Example 777, 3-(4-((5-(3-(((S)-1-(1H-tetrazol-1-yl)propan-2-yl)oxy)-4-chlorophenyl)pyrimidin-2-yl)amino)-3-(2,2,2-trifluoroethoxy)-1H-pyrazol-1-yl)azepan-2-one] | < 10
C[C@@H](Cn1cnnn1)Oc1cc(-c2cnc(Nc3cn([C@H]4CC[C@@H](N5CCC5)CC4)nc3C(F)(F)F)nc2)ccc1Cl [Example 778, 5-(3-(((S)-1-(1H-tetrazol-1-yl)propan-2-yl)oxy)-4-chlorophenyl)-N-(1-(cis-4-(azetidin-1-yl)cyclohexyl)-3-(trifluoromethyl)-1H-pyrazol-4-yl)pyrimidin-2-amine] | < 10
C[C@@H](Cn1cnnn1)Oc1cc(-c2cnc(Nc3cn([C@H]4CC[C@H](N5CCC5)CC4)nc3C(F)(F)F)nc2)ccc1Cl [Example 779, 5-(3-(((S)-1-(1H-tetrazol-1-yl)propan-2-yl)oxy)-4-chlorophenyl)-N-(1-(trans-4-(azetidin-1-yl)cyclohexyl)-3-(trifluoromethyl)-1H-pyrazol-4-yl)pyrimidin-2-amine] | < 10
C[C@@H](Cn1cnnn1)Oc1cc(-c2cnc(Nc3cn([C@H]4CC[C@@H](N5CCOCC5)CC4)nc3OCC(F)(F)F)nc2)ccc1Cl [Example 780, 5-(3-(((S)-1-(1H-tetrazol-1-yl)propan-2-yl)oxy)-4-chlorophenyl)-N-(1-(cis-4-morpholinocyclohexyl)-3-(2,2,2-trifluoroethoxy)-1H-pyrazol-4-yl)pyrimidin-2-amine] | < 10
C[C@@H](Cn1cnnn1)Oc1cc(-c2cnc(Nc3cn([C@H]4CC[C@@H](N5CCOCC5)CC4)nc3C(F)(F)F)nc2)ccc1Cl [Example 781, 5-(3-(((S)-1-(1H-tetrazol-1-yl)propan-2-yl)oxy)-4-chlorophenyl)-N-(1-(cis-4-morpholinocyclohexyl)-3-(trifluoromethyl)-1H-pyrazol-4-yl)pyrimidin-2-amine] | < 10
C[C@@H](Cn1cccn1)Oc1cc(-c2cnc(Nc3cn(C4CCN(C5CCOCC5)CC4)nc3OCC(F)(F)F)nc2)ccc1C#N [Example 782, (S)-2-((1-(1H-pyrazol-1-yl)propan-2-yl)oxy)-4-(2-((1-(1-(tetrahydro-2H-pyran-4-yl)piperidin-4-yl)-3-(2,2,2-trifluoroethoxy)-1H-pyrazol-4-yl)amino)pyrimidin-5-yl)benzonitrile] | < 10
C[C@@H](Cn1cnnn1)Oc1cc(-c2cnc(Nc3cn(CCCCO)nc3OCC(F)(F)F)nc2)ccc1Cl [Example 783, (S)-4-(4-((5-(3-((1-(1H-tetrazol-1-yl)propan-2-yl)oxy)-4-chlorophenyl)pyrimidin-2-yl)amino)-3-(2,2,2-trifluoroethoxy)-1H-pyrazol-1-yl)butan-1-ol] | < 10
C[C@@H](CO)Cn1cc(Nc2ncc(-c3ccc(Cl)c(O[C@@H](C)Cn4cnnn4)c3)cn2)c(OCC(F)(F)F)n1 [Example 784, (R)-3-(4-((5-(3-(((S)-1-(1H-tetrazol-1-yl)propan-2-yl)oxy)-4-chlorophenyl)pyrimidin-2-yl)amino)-3-(2,2,2-trifluoroethoxy)-1H-pyrazol-1-yl)-2-methylpropan-1-ol] | < 10
C[C@@H](Cn1cccn1)Oc1cc(-c2cnc(Nc3cn([C@H]4CC[C@@H](N5CCOCC5)CC4)nc3C(F)(F)F)nc2)ccc1C#N [Example 785, 2-(((S)-1-(1H-pyrazol-1-yl)propan-2-yl)oxy)-4-(2-((1-(cis-4-morpholinocyclohexyl)-3-(trifluoromethyl)-1H-pyrazol-4-yl)amino)pyrimidin-5-yl)benzonitrile] | 10 to 100
C[C@@H](Cn1cccn1)Oc1cc(-c2cnc(Nc3cn([C@H]4CC[C@H](N5CCOCC5)CC4)nc3C(F)(F)F)nc2)ccc1C#N [Example 786, 2-(((S)-1-(1H-pyrazol-1-yl)propan-2-yl)oxy)-4-(2-((1-(trans-4-morpholinocyclohexyl)-3-(trifluoromethyl)-1H-pyrazol-4-yl)amino)pyrimidin-5-yl)benzonitrile] | 10 to 100
C[C@H](CO)n1cc(Nc2ncc(-c3ccc(Cl)c(O[C@@H](C)Cn4cnnn4)c3)cn2)c(OCC(F)(F)F)n1 [Example 787, (R)-2-(4-((5-(3-(((S)-1-(1H-tetrazol-1-yl)propan-2-yl)oxy)-4-chlorophenyl)pyrimidin-2-yl)amino)-3-(2,2,2-trifluoroethoxy)-1H-pyrazol-1-yl)propan-1-ol] | < 10
